Results from PubChem BioAssay AID248 (DTP/NCI, 2004).
Several values for one entry are separate records, joined by “and”; a condition that tells them apart may be missing. Equal entries are not always repeated. Toxic doses and inconclusive results are not listed. Cut-off read from the data, not from the text of the source: active = T/C of 150% or more; inactive = T/C below 125%.

System: L1210 leukemia ip in BDF1 mice, survival T/C
Assay: NCI In Vivo Anticancer Drug Screen. Data for tumor model L1210 Leukemia (intraperitoneal) in B6D2F1 (BDF1) mice
Conditions: endpoint: mean survival time, higher = longer survival
In short: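 In this screen, tumor-bearing mice given compound are compared to those given vehicle, and their survival values are reported as a treated-to-control quotient.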

[1] = dose: 5.0 mg/kg/injection, schedule: Q01DX001 (ip), vehicle: saline
[2] = dose: 10.0 mg/kg/injection, schedule: Q01DX001 (ip), vehicle: saline
[3] = dose: 100.0 mg/kg/injection, schedule: Q01DX009 (ip), vehicle: saline with Tween-80
[4] = dose: 100.0 mg/kg/injection, schedule: Q04DX003 (ip), vehicle: saline with Tween-80
[5] = dose: 200.0 mg/kg/injection, schedule: Q01DX009 (ip), vehicle: saline with Tween-80
[6] = dose: 200.0 mg/kg/injection, schedule: Q04DX003 (ip), vehicle: saline with Tween-80
[7] = dose: 100.0 mg/kg/injection, schedule: Q01DX009 (ip), vehicle: saline
[8] = dose: 200.0 mg/kg/injection, schedule: Q01DX009 (ip), vehicle: saline
[9] = dose: 100.0 mg/kg/injection, schedule: Q04DX003 (ip), vehicle: Klucel (hydroxypropylcellulose) (HPC)
[10] = dose: 200.0 mg/kg/injection, schedule: Q04DX003 (ip), vehicle: Klucel (hydroxypropylcellulose) (HPC)
[11] = dose: 400.0 mg/kg/injection, schedule: Q04DX003 (ip), vehicle: Klucel (hydroxypropylcellulose) (HPC)
[12] = dose: 100.0 mg/kg/injection, schedule: Q01DX001 (ip), vehicle: carboxymethylcellulose (CMC)
[13] = dose: 200.0 mg/kg/injection, schedule: Q01DX001 (ip), vehicle: carboxymethylcellulose (CMC)
[14] = dose: 25.0 mg/kg/injection, schedule: Q01DX009 (ip), vehicle: Klucel (hydroxypropylcellulose) (HPC)
[15] = dose: 50.0 mg/kg/injection, schedule: Q01DX009 (ip), vehicle: Klucel (hydroxypropylcellulose) (HPC)
[16] = dose: 100.0 mg/kg/injection, schedule: Q01DX009 (ip), vehicle: Klucel (hydroxypropylcellulose) (HPC)
[17] = dose: 200.0 mg/kg/injection, schedule: Q01DX009 (ip), vehicle: Klucel (hydroxypropylcellulose) (HPC)
[18] = dose: 400.0 mg/kg/injection, schedule: Q01DX009 (ip), vehicle: Klucel (hydroxypropylcellulose) (HPC)
[19] = dose: 25.0 mg/kg/injection, schedule: Q04DX003 (ip), vehicle: Klucel (hydroxypropylcellulose) (HPC)
[20] = dose: 50.0 mg/kg/injection, schedule: Q04DX003 (ip), vehicle: Klucel (hydroxypropylcellulose) (HPC)

Measured: T/C

Oc1ccccc1/C=N/Sc1ccccc1.Oc1ccccc1/C=N/Sc1ccccc1.[Cl][Pd][Cl]
inactive: dose: 12.5 mg/kg/injection, schedule: Q04DX002 (ip), vehicle: Klucel (hydroxypropylcellulose) (HPC) 90 % of control | dose: 25.0 mg/kg/injection, schedule: Q04DX002 (ip), vehicle: Klucel (hydroxypropylcellulose) (HPC) 101 % of control | dose: 50.0 mg/kg/injection, schedule: Q04DX002 (ip), vehicle: Klucel (hydroxypropylcellulose) (HPC) 111 % of control

CN1C(=O)C(Br)=C(Br)C1=O
inactive: [1] 97 % of control | [2] 94 % of control

CN(C)CCS(=O)(=O)c1ccc(Cl)cc1
inactive: dose: 100.0 mg/kg/injection, schedule: Q04DX002 (ip), vehicle: saline 102 % of control | dose: 200.0 mg/kg/injection, schedule: Q04DX002 (ip), vehicle: saline 109 % of control | dose: 400.0 mg/kg/injection, schedule: Q04DX002 (ip), vehicle: saline 98 % of control

CCCCCC(=O)c1ccc(O)cc1O
inactive: dose: 12.5 mg/kg/injection, schedule: Q01DX009 (ip), vehicle: gum acacia 104 % of control | dose: 25.0 mg/kg/injection, schedule: Q01DX009 (ip), vehicle: gum acacia 109 % of control | dose: 50.0 mg/kg/injection, schedule: Q01DX009 (ip), vehicle: gum acacia 93 % of control and 95 % of control | dose: 100.0 mg/kg/injection, schedule: Q04DX003 (ip), vehicle: gum acacia 95 % of control | dose: 200.0 mg/kg/injection, schedule: Q04DX003 (ip), vehicle: gum acacia 94 % of control

C[N+](C)(C)CCOC(=O)CCC(=O)OCC[N+](C)(C)C
inactive: dose: 1.56 mg/kg/injection, schedule: Q01DX009 (ip), vehicle: saline 94 % of control | dose: 3.12 mg/kg/injection, schedule: Q01DX009 (ip), vehicle: saline 94 % of control

OC(C#Cc1ccccc1)c1ccccc1 (stereo not given)
inactive: dose: 50.0 mg/kg/injection, schedule: Q01DX009 (ip), vehicle: saline with Tween-80 105 % of control | [3] 100 % of control | [4] 95 % of control | [5] 88 % of control and 89 % of control | [6] 101 % of control | dose: 400.0 mg/kg/injection, schedule: Q01DX009 (ip), vehicle: saline with Tween-80 98 % of control

O=S(O)c1ccc(Cl)cc1
inactive: [7] 101 % of control | [8] 100 % of control | dose: 400.0 mg/kg/injection, schedule: Q01DX009 (ip), vehicle: saline 98 % of control

COC(=O)CC1OCC=C2CN3CCC45C6=CC(=O)C(=O)C([N+](=O)[O-])=C6NC4C1C2CC35 (stereo not given)
inactive: [1] 97 % of control | [2] 97 % of control

Nc1ccccc1Sc1ccc(C(=O)O)cc1[N+](=O)[O-]
inactive: [9] 104 % of control | [10] 96 % of control | [11] 100 % of control

O=C1NC(=O)C(F)(F)C(O)N1 (stereo not given)
inactive: dose: 45.0 mg/kg/injection, schedule: Q01DX009 (ip), vehicle: saline 117 % of control | dose: 65.0 mg/kg/injection, schedule: Q01DX009 (ip), vehicle: saline 94 % of control | [7] 92 % of control | dose: 100.0 mg/kg/injection, schedule: Q04DX003 (ip), vehicle: saline 108 % of control | dose: 150.0 mg/kg/injection, schedule: Q01DX009 (ip), vehicle: saline 97 % of control | dose: 200.0 mg/kg/injection, schedule: Q04DX003 (ip), vehicle: saline 117 % of control | dose: 220.0 mg/kg/injection, schedule: Q01DX009 (ip), vehicle: saline 90 % of control | dose: 400.0 mg/kg/injection, schedule: Q04DX003 (ip), vehicle: saline 120 % of control

O=C(O)CC(NC(=O)c1ccccc1)C(=O)O (stereo not given)
inactive: dose: 50.0 mg/kg/injection, schedule: Q01DX009 (ip), vehicle: saline 93 % of control | [7] 89 % of control | [8] 97 % of control

CCCc1cc(=O)c2ccccc2n1COC(C)=O
inactive: dose: 50.0 mg/kg/injection, schedule: Q01DX001 (ip), vehicle: carboxymethylcellulose (CMC) 119 % of control | [12] 113 % of control | [13] 113 % of control

S=c1nc[nH]c2cc[nH]c12
inactive: dose: 100.0 mg/kg/injection, schedule: Q01DX001 (ip), vehicle: other 95 % of control | dose: 200.0 mg/kg/injection, schedule: Q01DX001 (ip), vehicle: other 98 % of control | dose: 400.0 mg/kg/injection, schedule: Q01DX001 (ip), vehicle: other 101 % of control

CCN(CC)CCNc1ncnc2c1cnn2-c1ccc(Cl)cc1
inactive: [14] 95 % of control | [15] 95 % of control | [16] 92 % of control | [3] 101 % of control | [9] 95 % of control | [4] 103 % of control | dose: 150.0 mg/kg/injection, schedule: Q01DX009 (ip), vehicle: Klucel (hydroxypropylcellulose) (HPC) 101 % of control | [5] 95 % of control | [10] 95 % of control | [6] 94 % of control | dose: 225.0 mg/kg/injection, schedule: Q01DX009 (ip), vehicle: Klucel (hydroxypropylcellulose) (HPC) 93 % of control | dose: 335.0 mg/kg/injection, schedule: Q01DX009 (ip), vehicle: Klucel (hydroxypropylcellulose) (HPC) 87 % of control | [11] 95 % of control | dose: 400.0 mg/kg/injection, schedule: Q04DX003 (ip), vehicle: saline with Tween-80 103 % of control

Cc1cc(N(C)C)ccc1C=O
inactive: [16] 94 % of control | [9] 97 % of control | [17] 105 % of control | [10] 105 % of control | [18] 103 % of control | [11] 98 % of control

CC/C(=C\c1ccccc1)[N+](=O)[O-]
inactive: [14] 102 % of control | [19] 97 % of control | [15] 98 % of control | [20] 90 % of control | [9] 103 % of control

COC(=O)CCCCCCCC(=O)O
inactive: [16] 94 % of control | [17] 98 % of control | [18] 102 % of control

O=C(O)c1cc(O)ccc1N=Nc1ccccc1
inactive: [12] 95 % of control | [13] 95 % of control | dose: 400.0 mg/kg/injection, schedule: Q01DX001 (ip), vehicle: carboxymethylcellulose (CMC) 98 % of control

CC(=O)/C(=C(/C)OB(F)F)C(C)C
inactive: dose: 50.0 mg/kg/injection, schedule: Q01DX001 (ip), vehicle: saline 102 % of control | dose: 100.0 mg/kg/injection, schedule: Q01DX001 (ip), vehicle: saline 104 % of control | dose: 200.0 mg/kg/injection, schedule: Q01DX001 (ip), vehicle: saline 102 % of control

CCOC(=O)c1c[n]([Hg][n]2cc(C(=O)OCC)c(Nc3ccccc3Br)nc2=O)c(=O)nc1Nc1ccccc1Br
inactive: dose: 3.0 mg/kg/injection, schedule: Q01DX009 (ip), vehicle: Klucel (hydroxypropylcellulose) (HPC) 95 % of control | dose: 6.0 mg/kg/injection, schedule: Q01DX009 (ip), vehicle: Klucel (hydroxypropylcellulose) (HPC) 93 % of control | dose: 6.25 mg/kg/injection, schedule: Q04DX003 (ip), vehicle: Klucel (hydroxypropylcellulose) (HPC) 96 % of control | dose: 12.0 mg/kg/injection, schedule: Q01DX009 (ip), vehicle: Klucel (hydroxypropylcellulose) (HPC) 96 % of control | dose: 12.5 mg/kg/injection, schedule: Q04DX003 (ip), vehicle: Klucel (hydroxypropylcellulose) (HPC) 96 % of control and 103 % of control | [19] 88 % of control | [20] 100 % of control

CCOC(=O)C/C(C(=O)O)=C(\C)c1ccc2ccccc2c1
inactive: dose: 100.0 mg/kg/injection, schedule: Q01DX001 (ip), vehicle: Klucel (hydroxypropylcellulose) (HPC) 101 % of control | [16] 95 % of control | dose: 200.0 mg/kg/injection, schedule: Q01DX001 (ip), vehicle: Klucel (hydroxypropylcellulose) (HPC) 95 % of control | [17] 100 % of control | dose: 400.0 mg/kg/injection, schedule: Q01DX001 (ip), vehicle: Klucel (hydroxypropylcellulose) (HPC) 95 % of control | [18] 86 % of control

CCN(CC)Cc1c(C)cc2oc(=O)c3c(c2c1O)CCCC3
inactive: [12] 93 % of control | [13] 93 % of control
